Earlier results as cited in paper PMC9240354, “Pharmacokinetics, Pharmacodynamics and Antiviral Efficacy of the MEK Inhibitor Zapnometinib in Animal Models and in Humans” (Frontiers in Pharmacology, 2022).

Key:
MEK = system: MEK; set-up: method as in Yang et al., 2010; conditions: single application, LOX melanoma tumor xenograft model; ref Yang et al., 2010; cited from earlier work
ERK phosphorylation = system: ERK phosphorylation; set-up: method as in Gilmartin et al., 2011; conditions: mouse tumor xenograft model; ref Gilmartin et al., 2011; cited from earlier work

Row | Compound | MEK inhibition with decreasing plasma concentration (MEK) | inhibition of ERK phosphorylation in vivo (ERK phosphorylation)
1 | CCCS(=O)(=O)Nc1ccc(F)c(C(=O)c2c[nH]c3ncc(-c4ccc(Cl)cc4)cc23)c1F [RG7204] | remained at a relatively constant value up to 8 h post dose | –
2 | CC(=O)Nc1cccc(-n2c(=O)n(C3CC3)c(=O)c3c(Nc4ccc(I)cc4F)n(C)c(=O)c(C)c32)c1 [trametinib] | – | sustained inhibition of ERK phosphorylation
